Measurements: the Kinase Knowledgebase extract (Sharma et al. 2016)

Molecular target: CDK2 (UniProt P24941)
Experiment: Enzyme Assay

| SMILES | IC50 [nM] |
| --- | --- |
| NS(=O)(=O)c1ccc(N/C=C2\C(=O)Nc3ncc(-c4ccccc4)cc32)cc1 | 1000 to 10000 |
| NS(=O)(=O)c1ccc(N/C=C2\C(=O)Nc3ccncc32)cc1 | 10 to 100 |
| NS(=O)(=O)c1ccc(N/C=C2\C(=O)Nc3ncc(-c4ccsc4)cc32)cc1 | 100 to 1000 |
| NS(=O)(=O)c1ccc(N/C=C2\C(=O)Nc3cnccc32)cc1 | 10 to 100 |
| NS(=O)(=O)c1ccc(N/C=C2\C(=O)Nc3nc(Cl)ccc32)cc1 | 100 to 1000 |
| CCOC(=O)c1cnc2c(c1)/C(=C\Nc1ccc3ncccc3c1)C(=O)N2 | 100 to 1000 |
| O=C1Nc2ncc(-c3ccsc3)cc2/C1=C/Nc1ccc2cn[nH]c2c1 | 100 to 1000 |

Second part, the compound after the results:

| IC50 [nM] | SMILES |
| --- | --- |
| 10 to 100 | CCOC(=O)c1cnc2c(c1)/C(=C/Nc1ccc3cn[nH]c3c1)C(=O)N2 |
| 10 to 100 | NS(=O)(=O)c1ccc(N/C=C2\C(=O)Nc3ncc(Br)cc32)cc1 |
| 100 to 1000 | O=C1Nc2nc(Cl)ccc2/C1=C/Nc1ccc2cn[nH]c2c1 |
| 1000 to 10000 | O=C1Nc2ncc(-c3ccco3)cc2/C1=C/Nc1ccc2cn[nH]c2c1 |
| 10 to 100 | O=C1Nc2ncc(Br)cc2/C1=C/Nc1ccc2ncccc2c1 |
| 10 to 100 | CCOC(=O)c1cnc2c(c1)/C(=C/Nc1ccc(S(N)(=O)=O)cc1)C(=O)N2 |
| 100 to 1000 | NS(=O)(=O)c1ccc(N/C=C2\C(=O)Nc3ncccc32)cc1 |
| 10 to 100 | NS(=O)(=O)c1ccc(N/C=C2\C(=O)Nc3ncc(-c4ccco4)cc32)cc1 |
| 10 to 100 | O=C1Nc2ncc(Br)cc2/C1=C/Nc1ccc2cn[nH]c2c1 |
